# Measurements published in patent publication US20140322278A1, “Modulation of Tissue Transglutaminase Activation in Disease” (The Board of Trustees of the Leland Stanford Junior …, priority 2011, published 2014).
# “Also recorded” adds a separate entry of the source.
# B1: recombinant human Trx: reduced human thioredoxin, overexpressed in and purified from recombinant E. coli (protein, UniProt P10599 2-105, looked up)
# Thioredoxin: VKQIESKTAFQEALDAAGDKLVVVDFSATWCGPCKMIKPFFHSLSEKYSNVIFLEVDVDDCQDVASECEVKCMPTFQFFKKGQKVGEFSGANKEKLEATINELV
# modifications: reduced
# notes: reduced human thioredoxin, overexpressed in and purified from recombinant E. coli
# Assays:
# [1] = cited from earlier work
# [2] = system: TG2 activation in T84 monolayers; assay: Thioredoxin-induced TG2 activation in T84 monolayers, 5BP incorporation ELISA; assay type: cell-based, human
# Description: (§1) FIG. 7. Dose dependence of TG2 activation in response to recombinant human thioredoxin treatments of T84 and WI-38 monolayers measured in a quantitative enzyme linked immunosorbent type assay. Cellular monolayers were treated for 3 hrs at 0-10 μM thioredoxin with or without TG2 inhibition using 25 μM ERW1041E or with or without using 0-50 μM thioredoxin inhibitor PX-12. TG2 activation was quantified by the amount of 5BP crosslinked to native proteins in the extracellular matrix of cultured monolayers as measured by tetramethylbenzidine turnover via streptavidin-HRP labeling. (A) and (B) Illustrate the dependence of 5BP incorporation on thioredoxin exposure concentration in T84 and WI-38 cells, respectively. […] (C) and (D) Illustrate the dependence of 5BP incorporation on the ability of thioredoxin to activate TG2. TG2 activation was highest for control experiments with 0 μM PX-12. The amount of PX-12 required to reduce the 5BP incorporation in half at saturating concentrations of 3 μM thioredoxin in T84 and WI-38 cultures was 11 μM and 5 μM PX-12, respectively. […] Data reported as mean+/−standard deviation.
# (§2) To test whether recombinant human thioredoxin could directly activate TG2 in cell culture, we used T84 and WI-38 monolayers in similar assays as described herein. T84 and WI-38 cells were grown into mature monolayers at which point varying amounts of pre-reduced thioredoxin were added to the culture medium along with 5BP and/or small molecule inhibitors, such as the TG2 inhibitor, ERW1041E, or the thioredoxin inhibitor, PX-12. 5BP incorporated into the extracellular matrix of cultured monolayers via activated TG2 was then quantified.
# [3] = target: T1, human thioredoxin (Homo sapiens, UniProt P10599); assay: Inhibition of human thioredoxin by disulfide analogs of PX-12 (kinh/Ki); assay type: biochemical
# T1 construct: made in house; host or cells: E. coli
# T1 sequence (P10599 1-105): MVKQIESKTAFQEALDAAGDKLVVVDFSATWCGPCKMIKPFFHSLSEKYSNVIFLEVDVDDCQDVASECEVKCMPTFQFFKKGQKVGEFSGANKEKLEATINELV
# [4] = system: TG2 activation in WI-38 monolayers; assay: Thioredoxin-induced TG2 activation in WI-38 monolayers, 5BP incorporation ELISA; assay type: cell-based, human
# Description: as §1, §2
# [5] = target: T2, Trx (Homo sapiens, UniProt P10599); assay: Cell-free assay for Trx-mediated activation of oxidized TG2; assay type: biochemical; details: dose-dependent; 100 μM PX-12
# T2 construct: made in house; host or cells: E. coli (Trx)
# T2 sequence (P10599 1-105): T1 sequence (P10599 1-105)
# Description: (§3) To test our hypothesis, we measured the kinetics of Trx-mediated activation of oxidized TG2. Reduced forms of Trx from E. coli and human were prepared by overexpression in and purification from recombinant E. coli. Dithiothreitol (DTT) was used as a reference small molecule reducing agent. […] We therefore quantified the specificity of human Trx for human oxidized TG2 by measuring the Michaelis-Menten parameters for Trx-mediated reduction of oxidized TG2. Insulin, a well-characterized extracellular substrate of Trx, was used as a reference, and human thioredoxin reductase was used as a catalyst to achieve turnover under steady-state conditions. […] Based on these parameters, one can estimate that as little as 2.5 nM Trx in the extracellular matrix should be able to activate 10% of the local oxidized TG2 within 30 min.
# The small molecule PX-12 (1,1-methylpropyl 2-imidazolyl disulfide) inhibits Trx by oxidizing its active site Cys.
# [6] = Reactivity of disulfide inhibitors towards dithiothreitol
# [7] = target: T3, human transglutaminase 1 (TG1) (Homo sapiens, UniProt P22735); assay: TG1 inhibition kinetics (kinh/Ki); assay type: biochemical
# T3 sequence (P22735 1-817): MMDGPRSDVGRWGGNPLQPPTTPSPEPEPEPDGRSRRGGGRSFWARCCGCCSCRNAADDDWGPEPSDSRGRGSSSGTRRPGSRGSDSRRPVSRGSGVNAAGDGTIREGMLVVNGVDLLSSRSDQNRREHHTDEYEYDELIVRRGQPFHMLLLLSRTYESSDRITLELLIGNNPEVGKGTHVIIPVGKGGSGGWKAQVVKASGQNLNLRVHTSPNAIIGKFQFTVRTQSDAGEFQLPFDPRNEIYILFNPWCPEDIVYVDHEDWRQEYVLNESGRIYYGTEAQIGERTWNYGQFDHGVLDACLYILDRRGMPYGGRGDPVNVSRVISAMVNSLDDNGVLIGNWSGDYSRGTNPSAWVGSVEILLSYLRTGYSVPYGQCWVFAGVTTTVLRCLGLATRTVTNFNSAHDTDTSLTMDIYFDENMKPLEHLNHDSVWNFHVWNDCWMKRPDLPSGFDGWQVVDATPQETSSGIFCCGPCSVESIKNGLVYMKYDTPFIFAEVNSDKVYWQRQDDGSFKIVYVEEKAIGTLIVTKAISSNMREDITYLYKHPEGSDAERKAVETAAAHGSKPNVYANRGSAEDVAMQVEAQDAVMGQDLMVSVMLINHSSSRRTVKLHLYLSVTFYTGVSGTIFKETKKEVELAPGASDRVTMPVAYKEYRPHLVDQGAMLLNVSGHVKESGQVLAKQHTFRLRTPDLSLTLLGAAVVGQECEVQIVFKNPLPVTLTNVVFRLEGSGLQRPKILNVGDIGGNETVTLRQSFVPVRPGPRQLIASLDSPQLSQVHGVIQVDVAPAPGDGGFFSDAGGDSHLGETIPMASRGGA
# [8] = target: T4, human TG2 (Homo sapiens, UniProt P21980); assay: TG2 inhibition kinetics (kinh/Ki); assay type: biochemical
# T4 sequence (P21980 1-687): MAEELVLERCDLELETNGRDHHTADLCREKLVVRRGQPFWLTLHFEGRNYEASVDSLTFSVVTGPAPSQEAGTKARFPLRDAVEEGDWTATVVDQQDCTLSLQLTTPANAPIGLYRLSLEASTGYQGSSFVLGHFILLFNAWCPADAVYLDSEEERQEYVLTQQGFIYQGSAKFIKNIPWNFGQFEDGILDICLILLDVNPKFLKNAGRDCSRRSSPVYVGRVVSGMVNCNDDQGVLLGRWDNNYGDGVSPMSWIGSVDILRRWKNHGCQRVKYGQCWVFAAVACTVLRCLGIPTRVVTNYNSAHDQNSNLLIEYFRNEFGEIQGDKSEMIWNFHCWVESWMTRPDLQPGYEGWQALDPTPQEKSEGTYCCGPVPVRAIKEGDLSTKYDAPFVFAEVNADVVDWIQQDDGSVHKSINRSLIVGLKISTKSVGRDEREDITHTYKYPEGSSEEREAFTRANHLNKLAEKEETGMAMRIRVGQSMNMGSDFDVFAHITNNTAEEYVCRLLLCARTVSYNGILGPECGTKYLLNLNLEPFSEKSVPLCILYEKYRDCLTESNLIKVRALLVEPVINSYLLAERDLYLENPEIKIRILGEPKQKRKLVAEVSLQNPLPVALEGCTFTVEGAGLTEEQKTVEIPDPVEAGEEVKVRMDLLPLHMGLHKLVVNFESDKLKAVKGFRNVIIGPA
# [9] = system: TG2 activation in T84 monolayers; assay: IFN-γ induced TG2 activation in T84 monolayers, 5BP incorporation ELISA; assay type: cell-based, human; details: IFN-γ up to 1000 U/mL, 25 μM ERW1041E
# Description: FIG. 2. Dose and time dependence of TG2 activation in response to IFN-γ treatments of T84 monolayers measured in a quantitative enzyme linked immunosorbent type assay. T84 monolayers were treated for 1 to 72 hrs at 0-1000 U/mL IFN-γ with or without TG2 inhibition using 25 μM ERW1041E. TG2 activation was quantified by the amount of 5BP crosslinked to native proteins in the T84 cells as measured by tetramethylbenzidine turnover via streptavidin-HRP labeling. 5BP incorporation is dependent on IFN-γ exposure concentration. […] Data reported as mean+/−standard deviation.
# FIG. 3. […] (B) Dose and time dependence of TG2 activation in response to IFN-γ treatments of T84 monolayers measured in a quantitative enzyme linked immunosorbent type assay. […] TG2 activation was quantified by the amount of 5BP crosslinked to native proteins in the T84 cells as measured by tetramethylbenzidine turnover via streptavidin-HRP labeling. […]
# In addition to increasing the paracellular permeability of antigenic gluten peptides, we sought to determine if IFN-γ could activate TG2 in the extracellular matrix of mature T84 monolayers. […] To quantify the extent to which IFN-γ activates TG2 in the T84 model system, an enzyme linked immunosorbent assay (ELISA) was developed, using streptavidin conjugated to horseradish peroxidase. […]
# [10] = system: Insulin; assay: Kinetics of Trx-mediated reduction of insulin (reference substrate); assay type: biochemical; details: human thioredoxin reductase as catalyst, steady state
# Description: as §3
# [11] = Homo sapiens, saturating 3 μM thioredoxin, read-out: amount of PX-12 required to reduce the 5BP incorporation in half
# [12] = thioredoxin 0-10 μM, 3 hrs, 25 μM ERW1041E
molecule,measurement,setting,value
"CCC(C)SSc1ncc[nH]1 (stereo not shown) [compound 1, 1-methylpropyl 2-imidazolyl disulfide]",adverse effects in humans,[1]; high doses administered to humans,without any serious adverse effects
same,toxicity due to the 2-butanethiol leaving group,[1]; previous human clinical studies,dose-limiting toxicity
same,IC50,[2]; [11],11 µM
same,5BP incorporation in response to thioredoxin,[2]; PX-12 0-50 μM,quantitatively reduced
same,Trx kinh/Ki,"[3]; human thioredoxin, bimolecular parameter estimating potency",2670 M⁻¹ s⁻¹
same,Trx/DTT,[3]; ratio of reactivity towards Trx relative to DTT (selectivity),15
same,IC50,[4]; [11],5 µM
same,5BP incorporation in response to thioredoxin,[4]; PX-12 0-50 μM,quantitatively reduced
same,Trx-mediated activation of oxidized TG2,[5],complete inactivation
same,DTT k,[6],180 M⁻¹ s⁻¹
O=C(NC[C@@H]1CC(Br)=NO1)[C@@H]1CCCN1C(=O)OCc1cnc2ccccc2c1 [compound 2],TG2 activation (5BP incorporation) in response to thioredoxin,[2]; [12],completely negates; also recorded: reduced to basal levels
same,kinh/Ki TG1,[7],220.37 M⁻¹ s⁻¹
same,kinh/Ki TG2,[8],283.15 M⁻¹ s⁻¹
same,TG2 activation (5BP incorporation) in response to thioredoxin,[4]; [12],completely negates; also recorded: reduced to basal levels
same,TG2 activation (5BP incorporation),[9],completely blocked 5BP incorporation; also recorded: reduced to basal levels
B1,Km,[10],30 µM
